In patent publication US6602487B1, “Methods and tests for producing and for inhibiting coronary artery vasospasms” (Dimera Incorporated, priority 1997, dated 2003):
Where “and” joins values, the source holds several entries; their conditions need not be identical. Equal entries are not always repeated. Entries after “also recorded” stand apart in the source; their conditions may differ. Where two headings read alike, the source gives them in different places.

Key:
coronary arteries [1] = conditions: for EC50: read-out: estimated ET1 EC50, responsive ovx monkeys; for coronary vasospasm on IC injection (no mechanical injury): serotonin 6.7 or 200 μmol/liter alone, U46619 6.7 to 2,000 nmol/liter alone, AII up to 200 nmol/liter, combination 6.7 μmol/liter serotonin and 67 nmol/liter U46619, triple combination with ET1
coronary arteries [2] = assay: Mechanical injury coronary vasospasm protocol (Protocol 2); type: in vivo, rhesus monkeys (Macaca mulatta); conditions: for Spasms/N: number of animals with vasospasm / number of animals; for ED50 (-log mol/liter): syringe concentration of the named vasoconstrictor causing 50% reduction of diameter from control, combined stimuli with 100 μmol/liter serotonin
Text: A separate mechanical injury, Protocol 2, was used in three additional monkeys (one male, two ovx). The injury step of Protocol 2, was deliberate mechanical stretching of the LAD or left main coronary artery with a 5F catheter.
In Protocol 2, steps 1-5 were the same as in Protocol 1. The remaining steps were as follows:
7. IC injection of angiotensin II (sequential doses to 10 μmol/liter);
8. Injury by stretching the coronary artery with a 5F catheter;
9. IC injection of serotonin (sequential doses to 1 mmol/liter);
10. IC injection 15 minutes later with 1 or 10 μmol/liter nitrendipine or Ro 40-5967 (mibefradil);
11. IC injection of […] (sequential doses to 10 μmol/liter); and
12. IC injection 15 minutes later with 1 or 10 μmol/liter nitrendipine or Ro 40-5967.
Putative coronary vasospasm stimuli were judged primarily by actions on large coronary artery diameters, analyzed as diameter of the most proximal focus of vasospasm at end-diastole from video-taped images recorded at 30 frames/s. We used the image analysis program Image Pro to measure the diameters from single frames acquired with an Imagraph frame grabber in a Pentium computer. We used the 3F catheter tip radio-opaque marker ring (1.0 mm) for calibration and determined minimal and maximal diameters just distal to the constriction. All responses to interventions were also X-ray imaged immediately (15 to 30 s after injection) and at exactly 3 minutes (and 15 minutes if there was vasospasm) after injection.

coronary arteries [3] = assay: Drug-induced (S+U) coronary vasospasm in ovariectomized monkeys with E2 plus P or MPA implants; type: in vivo, rhesus monkeys (Macaca mulatta)
Description: Twelve rhesus monkeys (Macaca mulatta), aged 8 to 16 years and with weights of 5-7 kg, were ovariectomized at least 3 months prior to beginning of the study and selected randomly for one of two treatments. After documenting the lack of cardiovascular disease or previous exposure to atherogenic diet and after a normal physical examination (including blood chemistry), monkeys received subdermal sylastic implants containing 200 mg of E2. Two weeks later, sylastic implants containing either 400 mg of P or 400 mg of MPA were additionally implanted. All steroids were purchased from Steraloids (Wilton, N.H.). Both estrogen and progestin implants, providing sustained release steroids, remained in place through the catheterization study 6 weeks after beginning the study. Venous blood sample (5 ml) were collected just prior to beginning the study at weekly intervals for measurements of serum levels of E2, P, and MPA. Target levels of 80-160 pg/ml for E2, 4000-8000 pg/ml for P, and 400-800 pg/ml for MPA were based on levels that are effective by reproductive system indices in women and monkeys. Levels were measured in blood serum at catheterization by specific radio-immunoassays.
Angiography was carried out under isoflurane (0.75-1.25%) general anesthesia with 70% O2 and 30% N2O, and body temperature supported with a heating pad. After ketamine sedation (10 mg/kg) and endotracheal tube placement, both femoral arteries were cannulated for simultaneous measurement of systemic blood pressure and coronary catheterization. Intravenous anticoagulation with 1000 units of heparin and fluid replacement with 75-150 ml of lactated Ringer's solution, and if needed 10-50 ml of dextran, to reach a minimum control diastolic blood pressure of 60 mm Hg.
Coronary arteries (left anterior descending or left circumflex) of the monkeys were catheterized and agents injected as described above in Example 1.
Statistical analysis was carried out by Student's t-test (non-paired) or Chi-square, with the p<0.05 level accepted as significant.
All monkeys were treated with estradiol 17β via sylastic implants for the entire treatment period. P or MPA was added during the last 2 weeks as a second sylastic implant, to simulate the luteal phase (P) or hormone replacement therapy (MPA). All steroid implants were left in place, including during angiography. Steroid measurements were made by RIA on serum samples taken just before angiography. Indicates significant differences between P and MPA at p 0.05 (N=6 for each group).

[4] = test system: coronary artery vascular muscle cells (VMC); assay: Subcellular Ca2+ and PKC localization and contraction of coronary VMC stimulated with serotonin plus U46619; type: cell-based, rhesus monkeys
Text: Single VMCs from the left anterior descending, circumflex, and right coronary arteries of adult rhesus monkeys were isolated and studied both as freshly dispersed and as primary cultures. The short-term primary cultured cells (never passaged) maintain the characteristics of the source tissue for 2 3 weeks, including contraction, relaxation, receptors, and membrane electrical properties. VMCs were dissociated with collagenase and protease enzymes in a potassium glutamate solution (KG) that prevent loading with Na^+, Ca^2+, or Cl^− and results in a high proportion of viable, contracting cells (Self, D. A., et al., J. Vasc. Res. 31:359-366 (1994); Rusch., N. J., et al., Physiology and Pathophysiology of the Heart, 999-1010 (1995)). The cells prepared for culture were seeded at low density in cardiovascular culture solution for mammals, fifth generation (CV5M) on glass coverslips to facilitate selection of individual cells. VMC were used for experiments 7-14 days after attaching to coverslips.
Freshly dispersed or primary cultured VMCs on glass coverslips were placed in a chamber of laminar flow design and observed with a Zeiss Plan Neofluar 25×/0.80 water immersion objective. Ionic solution for mammals version 2 (ISM2) was continuously pumped through the chamber (at 1 ml/minute) to provide continuous equilibration and washout of drugs. After a 15 minutes equilibration period, VMC were loaded for 15 minutes at room temperature with 3 μM fluo 3 (Molecular Probes, Inc.) for sensing Ca^2− and for 10 minutes with […] hypericin (LC Laboratories) for reporting PKC. Individual VMC were stimulated by adding 20 μl of 10 μM serotonin plus 100 nM U46619 over the individual cell. After 15 seconds under no-flow conditions, continuous flow of ISM2 was reinstated and a chamber volume of approximately 300 μl was maintained. Fluorescent images were taken at 1, 2, 5, 10, 15, 20 and 30 minutes after stimulation for Ca^2+ and at 3, 4, 9, 16, 21 and 31 minutes for PKC to evaluate subcellular distribution of these signals, and to determine VMC contraction.
ISM2 contains (in mM): 100 NaCl, 4 NaHCO3, 0.5 NaH2PO4, 4.7 KCl, 1.8 CaCl2, 0.41 […], 50 HEPES (pH 7.37), and 5.5 dextrose, KG solution consists of (in mM); 140 K-glutamate, 16 NaHCO3, 0.5 NaH2PO4, 30 HEPES, and 16.5 dextrose at pH 7.3. CVSM consists of. 4.0 mM L-glutamine, 10 μg/ml ciprofloxacin (Miles Pentex/Bayer Corporation), 50 mM HEPES (pH 7.3), and 16 mM NaHCO3 dissolved in 85% MEM-Earle's'salts and 15% horse serum. Phenol red, known to have estrogenic activity, was omitted from all solutions.
As discussed above, the monkeys were implanted with subdermal sylastic tubing containing estrogen (E) progesterone (P) or MPA. The first step in each of the three groups was to implant sylastic tubing containing E. Two weeks later, either P or MPA were additionally implanted and maintained for another 4 weeks (6 weeks total). In the withdrawal (W) group, the E tube was withdrawn, and no tubes were implanted for the last 4 weeks.

[5] = angiographic example, one MPA monkey
[6] = minimum, 5-20 minutes after IC S + U

Molecule: CC(=O)OCC[N+](C)(C)C [ACh, acetylcholine]
- time to vasodilation (coronary arteries [1]; 67 nmol/liter ACh IC, all monkeys): ≤ 15 s

Molecule: CC[C@H](C)[C@H](NC(=O)[C@H](CC(=O)O)NC(=O)[C@H](CC(C)C)NC(=O)[C@H](Cc1c[nH]cn1)NC(=O)[C@@H]1CSSC[C@H](N)C(=O)N[C@@H](CO)C(=O)N[C@H]2CSSC[C@H](NC(=O)[C@H](CCC(=O)O)NC(=O)[C@H](CCCCN)NC(=O)[C@H](CC(=O)O)NC(=O)[C@H](CCSC)NC(=O)[C@H](CC(C)C)NC(=O)[C@H](CO)NC(=O)[C@H](CO)NC2=O)C(=O)N[C@@H](C(C)C)C(=O)N[C@@H](Cc2ccc(O)cc2)C(=O)N[C@@H](Cc2ccccc2)C(=O)N1)C(=O)N[C@H](C(=O)N[C@@H](Cc1c[nH]c2ccccc12)C(=O)O)[C@@H](C)CC [Endothelin 1]
- Spasms/N (coronary arteries [2]; Protocol 2): 0/3
- ED50 (-log mol/liter) (coronary arteries [2]; Protocol 2): 8.5 -log mol/liter
- EC50 (coronary arteries [1]; with 6.7 μmol/liter serotonin): 67 pM
- EC50 (coronary arteries [1]; without serotonin): 200 pM

Molecule: CC(=O)O[C@]1(C(C)=O)CC[C@H]2[C@@H]3C[C@H](C)C4=CC(=O)CC[C@]4(C)[C@H]3CC[C@@]21C [MPA, medroxyprogesterone acetate]
- diameter in dilator response to low dose ACh (coronary arteries [3]; 0.18 μg ACh IC): 1.21±0.19 mm
- number of S+U challenges responded to with vasospasm (mean) (coronary arteries [3]; E2+MPA treated monkeys): 2.7±0.7
- number of S+U challenges responded to with vasospasm (range) (coronary arteries [3]; E2+MPA treated monkeys): 1-5
- Vasospasms (incidence) (coronary arteries [3]; S+U IC challenges, E2 implant plus P or MPA implant, N=6 per group): 6 of 6 and 6/6*
- reduction of minimum (φ) from controls after S+U (coronary arteries [3]; S+U stimulation): 87%
- constriction after IC S+U (coronary arteries [3]; [5]): 92%
- time constriction was sustained (coronary arteries [3]; [5]): 15 min
- blood pressure nadir (coronary arteries [3]; angiographic example, one MPA monkey after S+U): 38/20
- Control DBP in mm Hg (coronary arteries [3]; before S + U): 61 ± 5 mm Hg
- Control Heart rate in bpm (coronary arteries [3]; before S + U): 134 ± 26 bpm
- S + U (φ) minimum (coronary arteries [3]; minimum diameter 3 to 5 minutes after IC S + U): 0.15±0.04 mm
- S + U stim DBP in min Hg (coronary arteries [3]; [6]): 26 ± 8 min Hg
- S + U stim SBP in mm Hg (coronary arteries [3]; [6]): 45 ± 11 mm Hg
- S + U stim heart rate in bpm (coronary arteries [3]; [6]): 69 ± 24 bpm
- Control (φ) in mm (coronary arteries [3]; proximal LAD or left circumflex diameter under control conditions, E2+P or E2+MPA group): 1.15±0.10 mm
- whole cell Ca2+ (fluo 3) fluorescence after stimulation ([4]; VMC from treated monkeys, 10 μM serotonin plus 100 nM U46619, FIG. 3): significantly increased over control averaged over the whole cell at 1 minute and every subsequent time point
- peripheral-to-central Ca2+ ratio after stimulation ([4]; VMC from treated monkeys, 10 μM serotonin plus 100 nM U46619, FIG. 4): significantly decreased peripheral-to-central Ca^2+ ratio at 10 minutes and all subsequent times
- PKC signal after stimulation ([4]; VMC from treated monkeys, 10 μM serotonin plus 100 nM U46619, FIG. 5): significantly above the 0-min control at 3 minutes and all subsequent time points
- peripheral-to-central PKC ratio after stimulation ([4]; VMC from treated monkeys, 10 μM serotonin plus 100 nM U46619, FIG. 6): decreased significantly
- VMC contractions (cell width) after stimulation ([4]; VMC from treated monkeys, 10 μM serotonin plus 100 nM U46619, FIG. 7): significantly different from 0-min controls at 3 minutes and all subsequent times
- duration of activation by serotonin and U46619 ([4]; based on comparisons of contractions, protocol limit 30 minutes): > 30 min

Molecule: CCCCC[C@H](O)/C=C/[C@@H]1[C@@H](C/C=C\CCCC(=O)O)[C@H]2CO[C@@H]1C2 [U46619]
- coronary vasospasm with mechanical injury (5F catheter stretch) (coronary arteries [2]; serotonin 67 μmol/liter IC, U46619 67 nmol/liter or 1 nmol/liter, ET1 ≦10 nmol/liter, AII ≦10 μmol/liter): caused another vasospasm; also recorded: Vasospasm was stimulated
- EC50 (-log mol/liter) (coronary arteries [1]; Protocol 1, estimated actual coronary artery blood concentration based on 15-fold dilution): 6.8 -log mol/liter
- Spasms/N (coronary arteries [1]; Protocol 1, number of animals with vasospasm / number of animals): 0/8
- ED50 (-log mol/liter) (coronary arteries [1]; Protocol 1, syringe concentration of the named vasoconstrictor causing 50% reduction of diameter from control, combined stimuli with 100 μmol/liter serotonin): 5.5 -log mol/liter
- vasoactivity / constriction of arteries on IC injection of single agent (coronary arteries [1]; serotonin 67 nmol/liter to 667 μmol/liter, U46619 6.7 to 2,000 nmol/liter): caused constriction of arteries in all 10 monkeys
- coronary vasospasm on IC injection (no mechanical injury) (coronary arteries [1]): vasospasm could not be found

Molecule: Angiotensin II: vasoconstrictor angiotensin-II (DRVYIHPF; Angiotensin-2; UniProt P01019 25-32, looked up)
- EC50 (-log mol/liter) (coronary arteries [2]; Protocol 2, estimated actual coronary artery blood concentration based on 15-fold dilution): 6.8 -log mol/liter
- Spasms/N (coronary arteries [2]; Protocol 2): 0/3
- ED50 (-log mol/liter) (coronary arteries [2]; Protocol 2): 5.5 -log mol/liter
- systemic blood pressure (coronary arteries [1]; Angiotensin II up to 200 nmol/liter IC): did increase systemic blood pressure
- coronary vasospasm on IC injection (no mechanical injury) (coronary arteries [1]): did not cause vasospasm
